Columns and labels:
Type in all cases: cell-based
[1] = system: MDA-MB-231 (breast cancer); experiment: Antiproliferative activity (CCK-8 cell viability), MDA-MB-231; conditions: Homo sapiens, 72 h, read-out: Antiproliferative activity in cancerous cells, MDA-MB-231 (inhibition of cell growth); for inhibition at 3.3 µM: Compound concentration: 3.3 μM; for inhibition at 10 µM: Compound concentration: 10 μM; for inhibition at 30 µM: Compound concentration: 30 μM
Procedure, shortened: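 Growth inhibition of human MDA-MB-231 breast cancer cells was assessed with a Cell Counting Kit-8. Cells cultured in DMEM plus 10% FBS were seeded at 2,000-5,000 cells/well, treated after attachment, and kept 72 h at 37° C. CCK-8 solution (10 μL) was added for 4 h, and absorbance at 450 nm was compared with DMSO-treated controls.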

HepG2 (liver cancer) = experiment: Antiproliferative activity (CCK-8 cell viability), HepG2; conditions: Homo sapiens, 72 h, read-out: Antiproliferative activity in cancerous cells, HepG2 (inhibition of cell growth); for inhibition at 3.3 µM: Compound concentration: 3.3 μM; for inhibition at 10 µM: Compound concentration: 10 μM; for inhibition at 30 µM: Compound concentration: 30 μM
Procedure, shortened: (§1)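 Growth inhibition graded in bands from percent viability against DMSO vehicle, read as CCK-8 absorbance at 450 nm. Compound tested at 3.3, 10 or 30 μM for 72 h, 37 °C; media contained 10% FBS: DMEM for HepG2/SW480, MEM for HeLa, F-12K for A549.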

SW480 (colon cancer) = experiment: Antiproliferative activity (CCK-8 cell viability), SW480; conditions: Homo sapiens, 72 h, read-out: Antiproliferative activity in cancerous cells, SW480 (inhibition of cell growth); for inhibition at 3.3 µM: Compound concentration: 3.3 μM; for inhibition at 10 µM: Compound concentration: 10 μM; for inhibition at 30 µM: Compound concentration: 30 μM
Procedure, shortened: as §1

[2] = system: B16F10 (malignant melanoma); experiment: Antiproliferative activity (CCK-8 cell viability), B16F10; conditions: Mus musculus, 72 h, read-out: Antiproliferative activity in cancerous cells, B16F10 (inhibition of cell growth); for inhibition at 3.3 µM: B16-F10, Compound concentration: 3.3 μM; for inhibition at 10 µM: B16-F10, Compound concentration: 10 μM; for inhibition at 30 µM: B16-F10, Compound concentration: 30 μM
Procedure, shortened: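 Cell growth inhibition was measured in B16F10 malignant melanoma cells with a Cell Counting Kit-8 viability assay. Cells were maintained in DMEM plus 10% fetal bovine serum, seeded at 2,000-5,000 cells/well in 96-well plates, and treated for 72 h at 37° C. Viability was expressed relative to DMSO-treated vehicle control wells.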

[3] = system: A431 (epidermoid carcinoma); experiment: Antiproliferative activity (CCK-8 cell viability), A431; conditions: Homo sapiens, 72 h, read-out: Antiproliferative activity in cancerous cells, A431 (inhibition of cell growth); for inhibition at 3.3 µM: A-431, Compound concentration: 3.3 μM; for inhibition at 10 µM: A-431, Compound concentration: 10 μM; for inhibition at 30 µM: A-431, Compound concentration: 30 μM
Procedure, shortened: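 This growth inhibition assay used A431 cells maintained in Dulbecco's modified Eagle's medium plus 10% fetal bovine serum. Cells were seeded in 96-well plates, treated with compound for 72 h at 37° C., and then given 10 μL CCK-8 solution. After a further 4 h, absorbance was read at 450 nm.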

[4] = system: A549 (lung adenocarcinoma); experiment: Antiproliferative activity (CCK-8 cell viability), A549; conditions: Homo sapiens, 72 h, read-out: Antiproliferative activity in cancerous cells, A549 (inhibition of cell growth); for inhibition at 3.3 µM: Compound concentration: 3.3 μM; for inhibition at 10 µM: Compound concentration: 10 μM; for inhibition at 30 µM: Compound concentration: 30 μM
Procedure, shortened: as §1

HeLa (cervical cancer) = experiment: Antiproliferative activity (CCK-8 cell viability), HeLa; conditions: Homo sapiens, 72 h, read-out: Antiproliferative activity in cancerous cells, HELA (inhibition of cell growth); for inhibition at 3.3 µM: Compound concentration: 3.3 μM; for inhibition at 10 µM: Compound concentration: 10 μM; for inhibition at 30 µM: Compound concentration: 30 μM
Procedure, shortened: as §1

| Compound | inhibition at 3.3 µM [1] | inhibition at 10 µM [1] | inhibition at 30 µM [1] | inhibition at 3.3 µM (HepG2 (liver cancer)) | inhibition at 10 µM (HepG2 (liver cancer)) | inhibition at 30 µM (HepG2 (liver cancer)) | inhibition at 3.3 µM (SW480 (colon cancer)) | inhibition at 10 µM (SW480 (colon cancer)) | inhibition at 30 µM (SW480 (colon cancer)) | inhibition at 3.3 µM [2] | inhibition at 10 µM [2] | inhibition at 30 µM [2] | inhibition at 3.3 µM [3] | inhibition at 10 µM [3] | inhibition at 30 µM [3] | inhibition at 3.3 µM [4] | inhibition at 10 µM [4] | inhibition at 30 µM [4] | inhibition at 3.3 µM (HeLa (cervical cancer)) | inhibition at 10 µM (HeLa (cervical cancer)) | other results |
| --- | --- | --- | --- | --- | --- | --- | --- | --- | --- | --- | --- | --- | --- | --- | --- | --- | --- | --- | --- | --- | --- |
| CC1=C(CC(=O)O)c2cc(F)ccc2/C1=C\c1cccc(C(=O)c2ccccc2)c1 [C304, (Z)-2-(1-(3-Benzoylbenzylidene)-5-fluoro-2-methyl-1H-inden-3-yl)acetic acid] | < 30% | 30 to 50% | ≥ 50% | 30 to 50% | ≥ 50% | ≥ 50% | < 30% | ≥ 50% | ≥ 50% | < 30% | ≥ 50% | ≥ 50% | < 30% | 30 to 50% | ≥ 50% | < 30% | ≥ 50% | ≥ 50% | 30 to 50% | ≥ 50% | inhibition at 30 µM (HeLa (cervical cancer)): ≥ 50% |
| CC1=C(CC(=O)O)c2cc(F)ccc2/C1=C\c1ccc(C(=O)c2ccc(F)cc2)cc1 [C305, (Z)-2-(5-Fluoro-1-(4-(4-fluorobenzoyl)benzylidene)-2-methyl-1H-inden-3-yl)acetic acid] | ≥ 50% | ≥ 50% | ≥ 50% | 30 to 50% | ≥ 50% | ≥ 50% | 30 to 50% | ≥ 50% | ≥ 50% | < 30% | ≥ 50% | ≥ 50% | 30 to 50% | ≥ 50% | ≥ 50% | < 30% | ≥ 50% | ≥ 50% | 30 to 50% | ≥ 50% | inhibition at 30 µM (HeLa (cervical cancer)): ≥ 50% |
| COc1ccc(C(=O)c2ccc(/C=C3/C(C)=C(CC(=O)O)c4cc(F)ccc43)cc2)cc1 [C306, (Z)-2-(5-Fluoro-1-(4-(4-methoxybenzoyl)benzylidene)-2-methyl-1H-inden-3-yl)acetic acid] | ≥ 50% | ≥ 50% | ≥ 50% | 30 to 50% | ≥ 50% | ≥ 50% | 30 to 50% | 30 to 50% | ≥ 50% | < 30% | ≥ 50% | ≥ 50% | ≥ 50% | ≥ 50% | ≥ 50% | < 30% | 30 to 50% | 30 to 50% | 30 to 50% | ≥ 50% | inhibition at 30 µM (HeLa (cervical cancer)): ≥ 50% |
| CC1=C(CC(=O)O)c2cc(F)ccc2/C1=C\c1ccc(C(=O)c2ccccc2)cc1 [C307, (Z)-2-(1-(4-Benzoylbenzylidene)-5-fluoro-2-methyl-1H-inden-3-yl)acetic acid] | 30 to 50% | ≥ 50% | – | 30 to 50% | ≥ 50% | – | < 30% | ≥ 50% | – | < 30% | ≥ 50% | – | 30 to 50% | ≥ 50% | – | < 30% | ≥ 50% | – | < 30% | ≥ 50% | – |
| CC1=C(CC(=O)O)c2cc(F)ccc2/C1=C\c1ccc(C(=O)c2cc3ccccc3o2)cc1 [C309, (Z)-2-(1-(4-(Benzofuran-2-carbonyl)benzylidene)-5-fluoro-2-methyl-1H-inden-3-yl)acetic acid] | 30 to 50% | 30 to 50% | ≥ 50% | < 30% | ≥ 50% | ≥ 50% | < 30% | ≥ 50% | ≥ 50% | < 30% | ≥ 50% | ≥ 50% | 30 to 50% | ≥ 50% | ≥ 50% | < 30% | 30 to 50% | ≥ 50% | 30 to 50% | ≥ 50% | inhibition at 30 µM (HeLa (cervical cancer)): ≥ 50% |
| CC1=C(CC(=O)O)c2cc(F)ccc2/C1=C\c1cccc(C(O)c2ccccc2)c1 (centres unmarked) [C310, (Z)-2-(5-Fluoro-1-(3-(hydroxy(phenyl)methyl)benzylidene)-2-methyl-1H-inden-3-yl)acetic acid] | < 30% | ≥ 50% | ≥ 50% | 30 to 50% | ≥ 50% | ≥ 50% | ≥ 50% | ≥ 50% | ≥ 50% | < 30% | 30 to 50% | ≥ 50% | ≥ 50% | 30 to 50% | ≥ 50% | 30 to 50% | 30 to 50% | ≥ 50% | ≥ 50% | ≥ 50% | inhibition at 30 µM (HeLa (cervical cancer)): ≥ 50% |
| CC1=C(CC(=O)O)c2cc(F)ccc2/C1=C\c1ccc(Cc2cc3ccccc3o2)cc1 [C311, (Z)-2-(1-(4-(Benzofuran-2-ylmethyl)benzylidene)-5-fluoro-2-methyl-1H-inden-3-yl)acetic acid] | < 30% | ≥ 50% | ≥ 50% | ≥ 50% | ≥ 50% | ≥ 50% | < 30% | < 30% | < 30% | ≥ 50% | ≥ 50% | ≥ 50% | 30 to 50% | 30 to 50% | 30 to 50% | < 30% | < 30% | < 30% | < 30% | < 30% | inhibition at 30 µM (HeLa (cervical cancer)): 30 to 50% |

Reference: patent publication US20260184663A1, “INDENE COMPOUNDS, PHARMACEUTICAL COMPOSITIONS THEREOF, AND THEIR THERAPEUTIC APPLICATIONS” (NucMito Pharmaceuticals co. Ltd., priority 2022, published 2026)
